{"source": "patent US20050026949A1", "about": "“Methods of therapeutic treatment using amounts of retinoids without regard to body weight” (Allergan, Inc., priority 2003, published 2005)", "key": {"[1]": {"system": "patients treated for psoriasis", "assay": "Phase 3 studies of orally administered tazarotene for psoriasis: adverse events (Table 1)", "format": "in vivo, human", "settings": "Taz 4.5 mg", "procedure": "A series of Phase 3 studies are conducted on orally administered tazarotene for the treatment of psoriasis. Adverse events (side effects) are monitored. In addition, published data for acitretin's side effects are also considered."}, "[2]": {"system": "patients treated for acne", "assay": "Studies of orally administered tazarotene for acne: adverse events (Table 2)", "format": "in vivo, human", "settings": "combined data from Studies 1 and 2 (N = 223)", "procedure": "Studies are conducted on orally administered tazarotene for the treatment of acne. Adverse events (side effects) are monitored."}, "[3]": {"settings": "Study 3, treated with Tazarotene for 3 months (N = 220)"}, "[4]": {"settings": "Study 3, treated with Tazarotene for 6 months (N = 92)"}, "[5]": {"settings": "combined data from Studies 1 and 2 (N = 348)"}}, "data": [{"smiles": "CCOC(=O)c1ccc(C#Cc2ccc3c(c2)C(C)(C)CCS3)nc1", "note": "[tazarotene]", "values": [{"measurement": "Alopecia", "setting": "[1]; [3]", "result": "1 (0.5) NUMBER OF (%) OF PATIENTS"}, {"measurement": "Arthralgia", "setting": "[1]; [3]", "result": "28 (12.7) NUMBER OF (%) OF PATIENTS"}, {"measurement": "Atrophy of skin", "setting": "[1]; [3]", "result": "0 (0.0) NUMBER OF (%) OF PATIENTS"}, {"measurement": "Back pain", "setting": "[1]; [3]", "result": "7 (3.2) NUMBER OF (%) OF PATIENTS"}, {"measurement": "Cheilitis", "setting": "[1]; [3]", "result": "149 (67.7) NUMBER OF (%) OF PATIENTS"}, {"measurement": "Dry Skin", "setting": "[1]; [3]", "result": "47 (21.4) NUMBER OF (%) OF PATIENTS"}, {"measurement": "Dry mouth/Oral dryness", "setting": "[1]; [3]", "result": "11 (5.0) NUMBER OF (%) OF PATIENTS"}, {"measurement": "Epistaxis", "setting": "[1]; [3]", "result": "1 (0.5) NUMBER OF (%) OF PATIENTS"}, {"measurement": "Erythematous rash/Erythema", "setting": "[1]; [3]", "result": "0 (0.0) NUMBER OF (%) OF PATIENTS"}, {"measurement": "Hyperesthesia", "setting": "[1]; [3]", "result": "0 (0.0) NUMBER OF (%) OF PATIENTS"}, {"measurement": "Nail Disorder", "setting": "[1]; [3]", "result": "1 (0.5) NUMBER OF (%) OF PATIENTS"}, {"measurement": "Paresthesia", "setting": "[1]; [3]", "result": "3 (1.4) NUMBER OF (%) OF PATIENTS"}, {"measurement": "Paronychia/Nail disorder", "setting": "[1]; [3]", "result": "1 (0.5) NUMBER OF (%) OF PATIENTS"}, {"measurement": "Pruritus", "setting": "[1]; [3]", "result": "11 (5.0) NUMBER OF (%) OF PATIENTS"}, {"measurement": "Rhinitis", "setting": "[1]; [3]", "result": "0 (0.0) NUMBER OF (%) OF PATIENTS"}, {"measurement": "Rigors/Chills", "setting": "[1]; [3]", "result": "1 (0.5) NUMBER OF (%) OF PATIENTS"}, {"measurement": "Skin peeling/Desquamation", "setting": "[1]; [3]", "result": "3 (1.4) NUMBER OF (%) OF PATIENTS"}, {"measurement": "Sticky skin/Skin disorder", "setting": "[1]; [3]", "result": "0 (0.0) NUMBER OF (%) OF PATIENTS"}, {"measurement": "Xerophthalmia/Eye disorder", "setting": "[1]; [3]", "result": "3 (1.4) NUMBER OF (%) OF PATIENTS"}, {"measurement": "Alopecia", "setting": "[1]; [4]", "result": "5 (5.4) NUMBER OF (%) OF PATIENTS"}, {"measurement": "Arthralgia", "setting": "[1]; [4]", "result": "30 (32.6) NUMBER OF (%) OF PATIENTS"}, {"measurement": "Atrophy of skin", "setting": "[1]; [4]", "result": "0 (0.0) NUMBER OF (%) OF PATIENTS"}, {"measurement": "Back pain", "setting": "[1]; [4]", "result": "10 (10.9) NUMBER OF (%) OF PATIENTS"}, {"measurement": "Cheilitis", "setting": "[1]; [4]", "result": "65 (70.7) NUMBER OF (%) OF PATIENTS"}, {"measurement": "Dry Skin", "setting": "[1]; [4]", "result": "24 (26.1) NUMBER OF (%) OF PATIENTS"}, {"measurement": "Dry mouth/Oral dryness", "setting": "[1]; [4]", "result": "2 (2.2) NUMBER OF (%) OF PATIENTS"}, {"measurement": "Epistaxis", "setting": "[1]; [4]", "result": "0 (0.0) NUMBER OF (%) OF PATIENTS"}, {"measurement": "Erythematous rash/Erythema", "setting": "[1]; [4]", "result": "0 (0.0) NUMBER OF (%) OF PATIENTS"}, {"measurement": "Hyperesthesia", "setting": "[1]; [4]", "result": "0 (0.0) NUMBER OF (%) OF PATIENTS"}, {"measurement": "Nail Disorder", "setting": "[1]; [4]", "result": "1 (1.1) NUMBER OF (%) OF PATIENTS"}, {"measurement": "Paresthesia", "setting": "[1]; [4]", "result": "1 (1.1) NUMBER OF (%) OF PATIENTS"}, {"measurement": "Paronychia/Nail disorder", "setting": "[1]; [4]", "result": "1 (1.1) NUMBER OF (%) OF PATIENTS"}, {"measurement": "Pruritus", "setting": "[1]; [4]", "result": "3 (3.3) NUMBER OF (%) OF PATIENTS"}, {"measurement": "Rhinitis", "setting": "[1]; [4]", "result": "0 (0.0) NUMBER OF (%) OF PATIENTS"}, {"measurement": "Rigors/Chills", "setting": "[1]; [4]", "result": "1 (1.1) NUMBER OF (%) OF PATIENTS"}, {"measurement": "Skin peeling/Desquamation", "setting": "[1]; [4]", "result": "1 (1.1) NUMBER OF (%) OF PATIENTS"}, {"measurement": "Sticky skin/Skin disorder", "setting": "[1]; [4]", "result": "0 (0.0) NUMBER OF (%) OF PATIENTS"}, {"measurement": "Xerophthalmia/Eye disorder", "setting": "[1]; [4]", "result": "1 (1.1) NUMBER OF (%) OF PATIENTS"}, {"measurement": "Alopecia", "setting": "[1]; [5]", "result": "1 (0.3) NUMBER OF (%) OF PATIENTS"}, {"measurement": "Arthralgia", "setting": "[1]; [5]", "result": "60 (17.2) NUMBER OF (%) OF PATIENTS"}, {"measurement": "Atrophy of skin", "setting": "[1]; [5]", "result": "0 (0.0) NUMBER OF (%) OF PATIENTS"}, {"measurement": "Back pain", "setting": "[1]; [5]", "result": "16 (4.6) NUMBER OF (%) OF PATIENTS"}, {"measurement": "Cheilitis", "setting": "[1]; [5]", "result": "228 (65.5) NUMBER OF (%) OF PATIENTS"}, {"measurement": "Dry Skin", "setting": "[1]; [5]", "result": "82 (23.6) NUMBER OF (%) OF PATIENTS"}, {"measurement": "Dry mouth/Oral dryness", "setting": "[1]; [5]", "result": "11 (3.2) NUMBER OF (%) OF PATIENTS"}, {"measurement": "Epistaxis", "setting": "[1]; [5]", "result": "2 (0.6) NUMBER OF (%) OF PATIENTS"}, {"measurement": "Erythematous rash/Erythema", "setting": "[1]; [5]", "result": "2 (0.6) NUMBER OF (%) OF PATIENTS"}, {"measurement": "Hyperesthesia", "setting": "[1]; [5]", "result": "0 (0.0) NUMBER OF (%) OF PATIENTS"}, {"measurement": "Nail Disorder", "setting": "[1]; [5]", "result": "2 (0.6) NUMBER OF (%) OF PATIENTS"}, {"measurement": "Paresthesia", "setting": "[1]; [5]", "result": "7 (2.0) NUMBER OF (%) OF PATIENTS"}, {"measurement": "Paronychia/Nail disorder", "setting": "[1]; [5]", "result": "2 (0.6) NUMBER OF (%) OF PATIENTS"}, {"measurement": "Pruritus", "setting": "[1]; [5]", "result": "21 (6.0) NUMBER OF (%) OF PATIENTS"}, {"measurement": "Rhinitis", "setting": "[1]; [5]", "result": "8 (2.3) NUMBER OF (%) OF PATIENTS"}, {"measurement": "Rigors/Chills", "setting": "[1]; [5]", "result": "9 (2.6) NUMBER OF (%) OF PATIENTS"}, {"measurement": "Skin peeling/Desquamation", "setting": "[1]; [5]", "result": "3 (0.9) NUMBER OF (%) OF PATIENTS"}, {"measurement": "Sticky skin/Skin disorder", "setting": "[1]; [5]", "result": "1 (0.3) NUMBER OF (%) OF PATIENTS"}, {"measurement": "Xerophthalmia/Eye disorder", "setting": "[1]; [5]", "result": "8 (2.3) NUMBER OF (%) OF PATIENTS"}, {"measurement": "Cheilitis", "setting": "[2]", "result": "134 (60.1) NUMBER OF (%) OF PATIENTS"}, {"measurement": "Conjunctivitis", "setting": "[2]", "result": "0 (0.0) NUMBER OF (%) OF PATIENTS"}, {"measurement": "Desquamation central face/Desquamation", "setting": "[2]", "result": "1 (0.4) NUMBER OF (%) OF PATIENTS"}, {"measurement": "Dry Skin", "setting": "[2]", "result": "79 (35.4) NUMBER OF (%) OF PATIENTS"}, {"measurement": "Dry nose", "setting": "[2]", "result": "7 (3.1) NUMBER OF (%) OF PATIENTS"}, {"measurement": "Epistaxis", "setting": "[2]", "result": "6 (2.7) NUMBER OF (%) OF PATIENTS"}, {"measurement": "Fingertip peeling/Desquamation", "setting": "[2]", "result": "1 (0.4) NUMBER OF (%) OF PATIENTS"}, {"measurement": "Headache", "setting": "[2]", "result": "26 (11.7) NUMBER OF (%) OF PATIENTS"}, {"measurement": "Irritation of eyes", "setting": "[2]", "result": "0 (0.0) NUMBER OF (%) OF PATIENTS"}, {"measurement": "Joint pain/Arthralgia", "setting": "[2]", "result": "18 (8.1) NUMBER OF (%) OF PATIENTS"}, {"measurement": "Peeling/Desquamation", "setting": "[2]", "result": "1 (0.4) NUMBER OF (%) OF PATIENTS"}, {"measurement": "Pruritus", "setting": "[2]", "result": "10 (4.5) NUMBER OF (%) OF PATIENTS"}, {"measurement": "Rash-dermatitis/Rash", "setting": "[2]", "result": "7 (3.1) NUMBER OF (%) OF PATIENTS"}, {"measurement": "Red Scaly face/Desquamation", "setting": "[2]", "result": "1 (0.4) NUMBER OF (%) OF PATIENTS"}, {"measurement": "Skin fragility/Skin disorder", "setting": "[2]", "result": "1 (0.4) NUMBER OF (%) OF PATIENTS"}]}]}
